Some results are limits rather than exact numbers.

In this assay the target is WDR5 (Homo sapiens (Human), UniProt P61964). Put plainly: TR-FRET binding assay, displacement of 10mer-Thr-FAM probe from His-tagged WDR5. The conditions noted are these: Inhibition of WDR5 by TR-FRET assay. The method, then: The LanthaScreenTM Elite Tb-anti-HIS Antibody from ThermoFisher Scientific was used for this purpose. […] The ratio of the 520 and 495 signals are then utilized to generate a dose-response curve to calculate an IC50 value. […] WDR[…] tag protein is used at 2 nM.
Take `Cc1cc(-c2cc(CNC3=NCCN3)cc(C(=O)NCc3ccc(Cl)cn3)c2)ccn1` [Example 27, N-((5-chloropyridin-2-yl)methyl)-3-(((4,5-dihydro-1H-imidazol-2-yl)amino)methyl)-5-(2-methylpyridin-4-yl)benzamide]: the inhibitory constant (Ki) amounted to 1.5 nM. `Cc1ccc(CNC(=O)c2cc(CNC3=NCCN3)cc(-c3cnccc3C)c2)cn1` [Example 28, 3-(((4,5-Dihydro-1H-imidazol-2-yl)amino)methyl)-5-(4-methylpyridin-3-yl)-N-((6-methylpyridin-3-yl)methyl)benzamide] displayed a Ki of 7.6 nM. The same measure for `Cc1cc(-c2cc(CNC3=NCCN3)cc(C(=O)NCc3nccc(C)n3)c2)ccn1` [Example 29, 3-(((4,5-Dihydro-1H-imidazol-2-yl)amino)methyl)-5-(2-methylpyridin-4-yl)-N-((4-methylpyrimidin-2-yl)methyl)benzamide]: 13 nM; for `COc1cc(CNC(=O)c2cc(CNC3=NCCN3)cc(-c3cnc(F)c(C)c3)c2)cc(OC)c1` [Example 30, 3-(((4,5-Dihydro-1H-imidazol-2-yl)amino)methyl)-N-(3,5-dimethoxybenzyl)-5-(6-fluoro-5-methylpyridin-3-yl)benzamide]: 0.33 nM; for `Cc1cc(CNC(=O)c2cc(CNC3=NCCN3)cc(-c3cnc(F)c(C)c3)c2)ccc1Cl` [Example 31, N-(4-Chloro-3-methylbenzyl)-3-(((4,5-dihydro-1H-imidazol-2-yl)amino)methyl)-5-(6-fluoro-5-methylpyridin-3-yl)benzamide]: less than 0.1 nM. The figure for `Cc1cccc(Oc2cc(CNC3=NCCN3)cc(C(=O)NCc3ccc(Cl)c(Cl)c3)c2)c1` [Example 32, N-(3,4-Dichlorobenzyl)-3-(((4,5-dihydro-1H-imidazol-2-yl)amino)methyl)-5-(m-tolyloxy)benzamide] is 0.91 nM; for `COc1cc(OC)cc(C(C)NC(=O)c2cc(CNC3=NCCN3)cc(C(F)(F)F)c2)c1` (stereo not drawn) [Example 33, 3-(((4,5-Dihydro-1H-imidazol-2-yl)amino)methyl)-N-(1-(3,5-dimethoxyphenyl)ethyl)-5-(trifluoromethyl)benzamide] it is 8.9 nM; for `COc1cc(CNC(=O)c2cc(CNC3=NCCN3)cc(-c3cnc(OC)c(Cl)c3)c2)cc(OC)c1` [Example 34, 3-(5-Chloro-6-methoxypyridin-3-yl)-5-(((4,5-dihydro-1H-imidazol-2-yl)amino)methyl)-N-(3,5-dimethoxybenzyl)benzamide] it is 0.37 nM. The figure for `COc1cc(CNC(=O)c2cc(CNC3=NCCN3)cc(-c3cnc(F)c(Cl)c3)c2)cc(OC)c1` [Example 35, 3-(5-Chloro-6-fluoropyridin-3-yl)-5-(((4,5-dihydro-1H-imidazol-2-yl)amino)methyl)-N-(3,5-dimethoxybenzyl)benzamide] is 0.36 nM; for `Cc1cnc(CNC(=O)c2cc(CNC3=NCCN3)cc(-c3ccc(F)nc3C)c2)cn1` [Example 36, 3-(((4,5-dihydro-1H-imidazol-2-yl)amino)methyl)-5-(6-fluoro-2-methylpyridin-3-yl)-N-((5-methylpyrazin-2-yl)methyl)benzamide] it is 2.8 nM.

In turn, `Cc1ncc(CNC(=O)c2cc(CNC3=NCCN3)cc(-c3ccc(F)nc3C)c2)cn1` [Example 37, 3-(((4,5-dihydro-1H-imidazol-2-yl)amino)methyl)-5-(6-fluoro-2-methylpyridin-3-yl)-N-((2-methylpyrimidin-5-yl)methyl)benzamide] yielded a Ki of 2.1 nM. Molecule `Cc1cnc(F)c(-c2cc(CNC3=NCCN3)cc(C(=O)NCc3cc(Cl)ccn3)c2)c1` [Example 38, N-((4-chloropyridin-2-yl)methyl)-3-(((4,5-dihydro-1H-imidazol-2-yl)amino)methyl)-5-(2-fluoro-5-methylpyridin-3-yl)benzamide] showed a Ki of 0.26 nM. The figure for `Cc1ccnc(C(NC(=O)c2cc(CNC3=NCCN3)cc(-c3cc(C)cnc3F)c2)C2CC2)c1` (stereo not drawn) [Example 39, N-(cyclopropyl(4-methylpyridin-2-yl)methyl)-3-(((4,5-dihydro-1H-imidazol-2-yl)amino)methyl)-5-(2-fluoro-5-methylpyridin-3-yl)benzamide] is less than 0.1 nM; for `Cc1cnc(F)c(-c2cc(CNC3=NCCN3)cc(C(=O)N(C)C)c2)c1` [Example 40, 3-(((4,5-dihydro-1H-imidazol-2-yl)amino)methyl)-5-(2-fluoro-5-methylpyridin-3-yl)-N,N-dimethylbenzamide] it is 64 nM; for `Cc1cnc(F)c(-c2cc(CNC3=NCCN3)cc(C(=O)NCc3ccc(Cl)c(C)c3)c2)c1` [Example 42, N-(4-chloro-3-methylbenzyl)-3-(((4,5-dihydro-1H-imidazol-2-yl)amino)methyl)-5-(2-fluoro-5-methylpyridin-3-yl)benzamide] it is less than 0.1 nM. `COc1cc(OC)cc(C(C)NC(=O)c2cc(CNC3=NC(=O)CN3C)cc(-c3ccc(F)nc3C)c2)c1` (stereo not drawn) [Example 44, N-(1-(3,5-dimethoxyphenyl)ethyl)-3-(6-fluoro-2-methylpyridin-3-yl)-5-(((1-methyl-4-oxo-4,5-dihydro-1H-imidazol-2-yl)amino)methyl)benzamide] had a Ki of 17 nM.

`COc1ccnc(CNC(=O)c2cc(CNC3=NCCN3)cc(-c3cc(C(C)C)ccc3OC)c2)c1` [Example 45, 5-(((4,5-dihydro-1H-imidazol-2-yl)amino)methyl)-5′-isopropyl-2′-methoxy-N-((4-methoxypyridin-2-yl)methyl)-[1,1′-biphenyl]-3-carboxamide] showed a Ki of 1.01 nM.

`COc1ccnc(CNC(=O)c2cc(CNC3=NCCN3)cc(-c3cc(C(F)(F)F)cnc3OC)c2)c1` [Example 46, 3-(((4,5-dihydro-1H-imidazol-2-yl)amino)methyl)-5-(2-methoxy-5-(trifluoromethyl)pyridin-3-yl)-N-((4-methoxypyridin-2-yl)methyl)benzamide] had a Ki of 0.1 nM. The figure for `COc1ccnc(CNC(=O)c2cc(CNC3=NCCN3)cc(-c3ccc(F)cc3C(F)(F)F)c2)c1` [Example 47, 5-(((4,5-dihydro-1H-imidazol-2-yl)amino)methyl)-4′-fluoro-N-((4-methoxypyridin-2-yl)methyl)-2′-(trifluoromethyl)-[1,1′-biphenyl]-3-carboxamide] is less than 0.1 nM. The figure for `COc1ccnc(CNC(=O)c2cc(CNC3=NCCN3)cc(-c3cc(F)cnc3OC)c2)c1` [Example 48, 3-(((4,5-dihydro-1H-imidazol-2-yl)amino)methyl)-5-(5-fluoro-2-methoxypyridin-3-yl)-N-((4-methoxypyridin-2-yl)methyl)benzamide] is 0.63 nM. The same measure for `COc1ccnc(CNC(=O)c2cc(CNC3=NCCN3)cc(-c3ccc(F)cc3OC)c2)c1` [Example 49, 5-(((4,5-Dihydro-1H-imidazol-2-yl)amino)methyl)-4′-fluoro-2′-methoxy-N-((4-methoxypyridin-2-yl)methyl)-[1,1′-biphenyl]-3-carboxamide]: 0.3 nM; for `COc1ccnc(CNC(=O)c2cc(CNC3=NCCN3)cc(-c3cc(C)c(F)cc3OC)c2)c1` [Example 50, 5-(((4,5-Dihydro-1H-imidazol-2-yl)amino)methyl)-4′-fluoro-2′-methoxy-N-((4-methoxypyridin-2-yl)methyl)-5′-methyl-[1,1′-biphenyl]-3-carboxamide]: less than 0.1 nM; for `COc1ccnc(CNC(=O)c2cc(CNC3=NCCN3)cc(-c3cc(C)c(F)cc3C)c2)c1` [Example 51, 5-(((4,5-Dihydro-1H-imidazol-2-yl)amino)methyl)-4′-fluoro-N-((4-methoxypyridin-2-yl)methyl)-2′,5′-dimethyl-[1,1′-biphenyl]-3-carboxamide]: less than 0.1 nM. As to `COc1cc(CNC(=O)c2cc(CNC3=NCCC3)cc(-c3cccn3C)c2)cc(OC)c1` [Example 58, 3-(((3,4-Dihydro-2H-pyrrol-5-yl)amino)methyl)-N-(3,5-dimethoxybenzyl)-5-(1-methyl-1H-pyrrol-2-yl)benzamide], the Ki came to 5.8 nM.

Turning to `COc1cc(CNC(=O)c2cc(CNC3=NCCC3)cc(-c3ccncc3C)c2)cc(OC)c1` [Example 61, 3-(((3,4-Dihydro-2H-pyrrol-5-yl)amino)methyl)-N-(3,5-dimethoxybenzyl)-5-(3-methylpyridin-4-yl)benzamide], affinity was put at a Ki of 1.8 nM.

On to `COc1cc(CNC(=O)c2cc(CNC3=NCCC3)cc(-c3cc(C)c(F)cc3C)c2)cc(OC)c1` [Example 62, 5-(((3,4-Dihydro-2H-pyrrol-5-yl)amino)methyl)-N-(3,5-dimethoxybenzyl)-4′-fluoro-2′,5′-dimethyl-[1,1′-biphenyl]-3-carboxamide], for which the Ki turned out to be 0.21 nM.

Turning to `Cc1cc(CNC(=O)c2cc(CNC3=NCCC3)cc(-c3ccc(F)c(CO)c3)c2)ccc1Cl` [Example 65, N-(4-chloro-3-methylbenzyl)-5-(((3,4-dihydro-2H-pyrrol-5-yl)amino)methyl)-4′-fluoro-3′-(hydroxymethyl)-[1,1′-biphenyl]-3-carboxamide], the inhibition constant Ki came to 4.3 nM.

As to `Cc1cc(-c2cc(CNC3=NCCC3)cc(C(=O)NCc3ccc(Cl)c(C)c3)c2)c(C)cc1F` [Example 66, N-(4-Chloro-3-methylbenzyl)-5-(((3,4-dihydro-2H-pyrrol-5-yl)amino)methyl)-4′-fluoro-2′,5′-dimethyl-[1,1′-biphenyl]-3-carboxamide], affinity was put at a Ki of 0.38 nM. In turn, `Cc1nc(F)ccc1-c1cc(CNC2=NCCN2)cc(C(=O)NCc2ccc(Cl)c(F)c2)n1` [Example 73, N-(4-Chloro-3-fluorobenzyl)-4-(((4,5-dihydro-1H-imidazol-2-yl)amino)methyl)-6′-fluoro-2′-methyl-[2,3′-bipyridine]-6-carboxamide] displayed a Ki of 0.43 nM. The figure for `COc1cc(OC)cc(C(C)NC(=O)c2cc(CNC3=NCCN3)cc(-c3ccc(F)nc3C)n2)c1` (stereo not drawn) [Example 75, 4-(((4,5-Dihydro-1H-imidazol-2-yl)amino)methyl)-N-(1-(3,5-dimethoxyphenyl)ethyl)-6′-fluoro-2′-methyl-[2,3′-bipyridine]-6-carboxamide] is 0.8 nM.

For the origin of these results see patent US10807959B2, “WDR5-MLL1 inhibitors and modulators” (Vanderbilt University, priority 2018, dated 2020).
